Paper PMC4684281, “Antitumor Effects and Mechanism of Novel Emodin Rhamnoside Derivatives against Human Cancer Cells In Vitro” (PLoS ONE, 2015)
Several values for one entry are separate records, joined by “and”; a condition that tells them apart may be missing. Identical values can stand only once. Entries after “also recorded” stand apart in the source; their conditions may differ. Like-named read-outs stand apart in the source and are kept apart here.

Key:
Type in all cases: cell-based, Human
OVCAR-3 cells = assay: Flow cytometry apoptosis analysis (Annexin V/7-AAD), OVCAR-3; conditions: 48h (Fig 8 legend: 72h); for Late apoptosis: control 4.87±1.42; for Early apoptosis: control 13.01±5.81; for Living cell: control 81.36±8.14
HepG2 cells = assay: MTT cell viability assay, HepG2; conditions: for IC50: HepG2
Protocol: (§1) The viability of cancer cells was evaluated by MTT assay. Briefly, cells were inoculated in 96-well culture plates at the density of 1×10^4/well with complete medium containing 10% fetal calf serum in a final volume of 0.2 mL. Cells were incubated at 37°C for at least 24 hours to allow optimal attachment. When the cells reached 60% confluence, they were treated with Cisplatin, HCPT and emodin rhamnopyranosides derivatives in various concentrations, and incubated in a humidity-controlled 5%CO2 incubator at 37°C for 72 hours. Medium were exchanged once every 24 hours. Cell control group and blank group were set up in the same manner, with each group having six parallel wells. Cell survival was assessed by directly adding 22 μL of 5mg/mL MTT to 0.2 mL medium. After three hours, the formazan precipitate was dissolved in 200μL isopropanol per well, and completely mixed under room temperature. Afterwards, the optical density of each well was detected at 570 nm wavelength by iMark microplate reader (Bio-rad,USA). This experiment was repeated at least three times.

[1] = test system: Caspase-3 gene expression of HepG2 cells; assay: RT-qPCR gene expression, Caspase-3; conditions: 48 hours, control 1.022±0.258
Protocol: HepG2 cells were inoculated in 6-well culture plates at a density of 3×10^5 cells/well, and allowed to attach at 37°C for 24 hours. Then cells were treated with specific concentrations of EM-d-Rha and incubated in a humidified incubator supplied with 5% CO2 at 37°C for 48 hours. Medium were changed once every 24 hours. Afterwards, mRNA was extracted from every group using E.Z.N.A.^TM Total RNA Kit II according to the manufacturer’s instructions. The extracted mRNA was dissolved in 20 μL ddH2O (Qiagen) containing diethyl pyrocarbonate (DEPC). The concentration of mRNA was quantified with a NanoDrop ND-100 device (Thermo Fisher Scientific). cDNA was synthesized using 3μg of the extracted mRNA from each sample with PCR system (BIO-RAD,USA). The cDNA synthesis reaction was prepared according to the manufacturer’s instructions by mixing 3μg mRNA, 4.0μL 5× MMLV buffer, 3 μL oligodT18, 0.5μL 10 mM dNTP solution, 0.8μL RNase inhibitor, 3.7μL MMLV Rtase, and 6.0μL DEPC ddH2O in PCR tubes. The reaction condition was 5min at 70°C, 60 min at 42°C and 10min at 4°C. The products were used for subsequent RT-qPCR analysis. The level of mRNA expression was measured by RT-qPCR using a CFX96^TM C1000 Real-Time PCR System (BIO-RAD, USA).The primers were designed using idt.dna software system (http //www.idtdna.com). The specific primers were: Cyto C: 5′-[…]-3′ (forward), 5′- […] -3′ (reverse); Caspase 3: 5′- CCTACAGCCCATTTC TCCATAC-3′ (forward), 5′-[…]-′ (reverse); β-actin: 5′-[…]-3′ (forward), 5′-[…]-3′ (reverse). The product sizes of Cyto C, Caspase 3 and β-actin were 91bp, 125bp and 107bp, respectively. […]
Master Mix (Promega), 0.3μL of each primer (10μM), and 1.0 μL cDNA template. […] Each sample was analyzed in quadruplicate and mean was used for further analysis. The mRNA expression levels of each sample were quantified by measuring the threshold cycle (CT) values of genes. The relative values of the target gene expression were calculated according to CT values of the target genes and the reference gene (β-actin) by applying Livak and Schmittgen method. […]

HeLa cells = assay: MTT cell viability assay, HeLa
Protocol: as §1

[2] = test system: Cyto C, caspase-3 and caspase-9 proteins in HepG2 cells; assay: Western blot analysis of apoptotic proteins; conditions: HepG2, compared to control group
Protocol: HepG2 cells were inoculated, cultured and harvested as described previously. Afterwards, the experiment was performed on ice. The harvested cell pellet was washed with cold PBS before being resuspended in 300μL cytosol lysis buffer through vortex. Then cells of all samples were lysed by sonication method on the ice using the ultrasonic cell disruptor (100 W for 30s×4 times). Total protein of each sample was measured by Bradford assay using protein quantification reagents from Bio-Rad. All samples were added 2×loading buffer before analyzing on 12% gels by SDS-PAGE. Then the proteins were transferred to nitrocellulose membranes by electro-blotting. The membranes were blocked in 1% bovine serum albumin (BSA) or 5% milk solution at room temperature for 30min, followed by incubation with the primary antibody against rabbit (Univ-bio, China) at 4°C overnight. The membranes were then washed three times with 1×TBST, each time last for 5 mins. The membranes were then incubated with the secondary antibodies for 3 h at 4°C, followed by washing with 1×TBST as described previously. Finally, the immuno-reactive bands were detected and documented using an enhanced chemiluminescent Western blotting system (Thermo-scientific, USA) on a Versa Doc imaging system.

[3] = OVCAR-3, 10μM, listed as EM-d-Rha

- IC50 (HepG2 cells; Homo sapiens, MTT at 72h, n=3, mean±S.E.M, read-out: IC50 for EM-d-Rha, HepG2): 1810 ± 440 nM
- IC50 (HepG2 cells; Homo sapiens, MTT, 72 hours, read-out: IC50 values, HepG2): 0.65 µg/mL
- Decrease of IC50 compared to the IC50 of emodin, HepG2 (HepG2 cells; from Table 1): 19.68 fold
- IC50 (HeLa cells; Homo sapiens, HeLa, MTT at 72h, n=3, mean±S.E.M, read-out: IC50 for EM-d-Rha, HeLa): 1510 ± 310 nM
- IC50 (HeLa cells; Homo sapiens, HeLa, MTT, 72 hours, read-out: IC50 values, HeLa): 1.15 µg/mL
- Decrease of IC50 compared to the IC50 of emodin, HeLa (HeLa cells; from Table 1): 10.56 fold
SMILES: CC(=O)O[C@@H]1[C@@H](O[C@@H]2O[C@@H](C)[C@H](O)[C@@H](OC(C)=O)[C@H]2OC(C)=O)[C@H](C)O[C@@H](Oc2cc(O)c3c(c2)C(=O)c2cc(C)cc(O)c2C3=O)[C@@H]1OC(C)=O [S-8, 3-(2”,3”-Di-O-acetyl-α-L-rhamnopyranosyl-(1→4)-2’,3’-di-O-acetyl-α-L-rhamnopyranosyl)-emodin]
- Late apoptosis (OVCAR-3 cells; OVCAR-3, 2.5μM): 3.30±2.95%
- Early apoptosis (OVCAR-3 cells; OVCAR-3, 2.5μM): 70.60±23.06 %
- Living cell (OVCAR-3 cells; OVCAR-3, 2.5μM): 25.82±20.14 %
- Late apoptosis (OVCAR-3 cells; OVCAR-3, 5μM): 0.81±0.05 %
- Early apoptosis (OVCAR-3 cells; OVCAR-3, 5μM): 90.52±0.20 %
- Living cell (OVCAR-3 cells; OVCAR-3, 5μM): 8.60±0.19 %
- Late apoptosis (OVCAR-3 cells; OVCAR-3, 10μM): 0.35±0.06 %
- Early apoptosis (OVCAR-3 cells; [3]): 95.09% and 95.09±1.03 %
- Living cell (OVCAR-3 cells; [3]): 4.53% and 4.53±0.99 %
- Activity against HepG2 cells relative to comparators (dose-response curves) (HepG2 cells; HepG2 treated for three day, Fig 3, listed as EM-d-Rha): stronger in comparison to that of emodin; also recorded: inferior as compared to that of Cisplatin and HCPT
- inhibition at 0.1 µM (HepG2 cells; Homo sapiens, HepG2, 0.1μM, MTT 72h, read-out: The inhibition rate of EM-d-Rha): 4.6 ± 5.04%
- inhibition at 0.5 µM (HepG2 cells; Homo sapiens, HepG2, 0.5μM, MTT 72h, read-out: The inhibition rate of EM-d-Rha): 24.3 ± 6.54%
- inhibition at 2.5 µM (HepG2 cells; Homo sapiens, HepG2, 2.5μM, MTT 72h, read-out: The inhibition rate of EM-d-Rha): 70.7 ± 3.54%
- inhibition at 12.5 µM (HepG2 cells; Homo sapiens, HepG2, 12.5μM, MTT 72h, read-out: The inhibition rate of EM-d-Rha): 90.97 ± 0.72%
- inhibition at 62.5 µM (HepG2 cells; Homo sapiens, HepG2, 62.5μM, MTT 72h, read-out: The inhibition rate of EM-d-Rha): 91.46 ± 0.46%
- Caspase-3 mRNA expression level relative to controls ([1]; HepG2, 0.70μM): 0.949±0.259 fold
- Caspase-3 mRNA expression level relative to controls ([1]; HepG2, 1.40μM): 0.900±0.190 fold
- Caspase-3 mRNA expression level relative to controls ([1]; HepG2, 5.60μM): 4.413±3.730 fold
- inhibition at 0.1 µM (HeLa cells; Homo sapiens, HeLa, 0.1μM, MTT 72h, read-out: The inhibition rate of EM-d-Rha): 14.8 ± 5.61%
- inhibition at 0.5 µM (HeLa cells; Homo sapiens, HeLa, 0.5μM, MTT 72h, read-out: The inhibition rate of EM-d-Rha): 37.6 ± 2.81%
- inhibition at 2.5 µM (HeLa cells; Homo sapiens, HeLa, 2.5μM, MTT 72h, read-out: The inhibition rate of EM-d-Rha): 49.2 ± 3.78%
- inhibition at 12.5 µM (HeLa cells; Homo sapiens, HeLa, 12.5μM, MTT 72h, read-out: The inhibition rate of EM-d-Rha): 69.1 ± 3.36%
- inhibition at 62.5 µM (HeLa cells; Homo sapiens, HeLa, 62.5μM, MTT 72h, read-out: The inhibition rate of EM-d-Rha): 89.74 ± 0.63%
- Expression levels of Cyto C, caspase-3 and caspase-9 proteins (western-blot) [2]: three proteins expression increased at a concentration-dependent manner
